Source: US20250179106A1, “Metal Bis(Imino) Aryl Compounds and Methods Thereof” (EXXONMOBIL CHEMICAL PATENTS INC., priority 2022, published 2025)

Test: Solubility of catalysts in alkane solvent
Assay type: physicochemical
Details: ambient temperature (20-25° C.)
Procedure: General considerations: Solubility studies for all catalysts were performed using material as synthesized, unless otherwise noted. Solvents used were sparged with nitrogen (30-60 minutes) and dried over 3 Å mole sieves. Unless stated otherwise, all measurements were performed at ambient temperature (20-25° C.).
A measured mass of solvent was added to a known amount of catalyst. After stirring for at least 30 minutes or more, the resulting mixture was filtered. The filtrate was concentrated is to dryness, and the remaining catalyst was weighed to provide the mass of dissolved catalyst. Solubility was calculated using the formula below.
Alternatively, for mixtures prepared at a low concentration (<0.25 wt %) which remained heterogeneous (visible solids or murky), the value may be reported as being “less than” the calculated value.
Formula used to calculate solubility is listed below.

Solubility (wt %) (solvent pentane) | Solubility (wt %) (solvent isohexane) | SMILES
0.15 wt % | – | CCCC[Si](CCCC)(CCCC)CC(=Nc1c(C)cc(C)cc1Cl)c1cccc(C(C[Si](CCCC)(CCCC)CCCC)=Nc2c(C)cc(C)cc2Cl)n1.[Cl][Fe][Cl] [Catalyst 9]
1.7 wt % | – | CCCC[Si](CCCC)(CCCC)CC(=Nc1c(C)ccc(Cl)c1C)c1cccc(C(C[Si](CCCC)(CCCC)CCCC)=Nc2c(C)ccc(Cl)c2C)n1.[Cl][Fe][Cl] [Catalyst 8]
– | 4.2 wt % | CCCC[Si](CCCC)(CCCC)CC(=Nc1c(C)cccc1C)c1cccc(C(C[Si](CCCC)(CCCC)CCCC)=Nc2c(C)cccc2C)n1.[Cl][Fe][Cl] [Catalyst 3]
2.6 wt % | – | CCCC[Si](CCCC)(CCCC)CC(=Nc1c(C)cc(Cl)cc1C)c1cccc(C(C[Si](CCCC)(CCCC)CCCC)=Nc2c(C)cc(Cl)cc2C)n1.[Cl][Fe][Cl] [Catalyst 7]
